Measured values published in US11492359B2, “Near-infrared nerve-sparing fluorophores” (OREGON HEALTH & SCIENCE UNIVERSITY, priority 2018, dated 2022).

Test: UV-Vis absorption and fluorescence spectroscopy of the Oxazine library
Type: physicochemical
Conditions: for Extinction coefficient: Beer's Law plots; for Quantum yield: relative, references Oxazine 1, Oxazine 170, Rhodamine 101
Protocol: All reagents were purchased from Sigma Aldrich, Fisher Scientific, TCI, or Ark Pharm. Unless otherwise indicated, all commercially available starting materials were used directly without further purification. Analytical thin layer chromatography (TLC) was performed on Millipore ready-to-use plates with silica gel 60 (F254, 32-63 μm). Flash chromatography was performed on Sorbent Technologies silica gel for column chromatography or on a Biotage Isolera Flash System using SNAP Ultra cartridges. High-resolution mass spectra (HRMS) were measured on a ThermoElectron LTQ-Orbitrap high resolution mass spectrometer with a dedicated Accela HPLC system, or an Agilent 6244 time-of-flight LCMS with diode array detector VL+. LCMS and Purity Characterization Mass-to-charge ratio and purity of the Oxazine compounds were characterized on an Agilent 6244 time-of-flight tandem liquid chromatography mass spectroscopy (LCMS) with diode array detector VL+. Sample (10 μL) was injected into a C18 column (Poroshell 120, 4.6×50 mm, 2.7 micron), and eluted with a solvent system of A (H2O, 0.1% FA) and B (MeCN, 01.% FA) at 0.4 mL/min, from A/B=90/10 to 5/95 over 10 min, maintained at A/B=5/95 for additional 5 min. Ions were detected in positive ion mode by setting the capillary voltage at 4 kV and gas temperature at 350° C. Purity was calculated through area under the curve analysis of the absorbance at 254 nm. UV-Vis Absorption and Fluorescence Spectroscopy. UV-Vis spectra were collected with a Cary 50 UV-Vis spectrophotometer at room temperature, using a 1-cm quartz cuvette. Fluorescence spectra were collected on a Cary Eclipse fluorescence spectrophotometer (Agilent Technologies). All absorbance spectra were reference corrected. Extinction coefficient was calculated from Beer's Law plots of absorbance versus concentration. Fluorescence spectra were corrected for the wavelength dependent response of the R928 photomultiplier tube using a manufacturer generated correction file. Relative quantum yields are reported as the average of multiple measurements using multiple references, including Oxazine 1, Oxazine 170, and Rhodamine 101. Physicochemical Property Calculation. Physicochemical partition coefficients (Log D) values at pH 7.4, number of hydrogen bond donors and acceptors, polar surface area, and the number of rotatable bonds were calculated using Marvin and JChem calculator plugins (ChemAxon, Budapest, Hungary). Nerve-Specificity Screening using Direct/Topical Administration Each compound was screened for its tissue-specificity using a previously published direct/topical administration strategy in murine brachial plexus and sciatic nerves.^1 Each compound from the Oxazine library was formulated in the previously utilized co-solvent formulation (10% DMSO, 5% Kolliphor, 65% serum and 20% phosphate buffered saline) at 125 μM. 100 μL of the formulated Oxazine were incubated on the exposed brachial plexus or sciatic nerve for 5 minutes. The fluorophore containing solution was removed and the area was irrigated with saline 18 times to remove any unbound fluorophore. Co-registered fluorescence and color images were collected of each stained area 30 minutes after Oxazine direct/topical administration using a custom built macroscopic imaging system with 620/60 nm excitation and 700/75 nm bandpass emission filters. Custom written MatLab code was used to analyze the tissue specific fluorescence where regions of interest were selected on the nerve, muscle and adipose tissue using the white light images. These regions of interest were then analyzed on the co-registered matched fluorescence images permitting assessment of the nerve to muscle and nerve to adipose ratios in blinded manner. […]

| SMILES | Max Abs [nm] | Max Em [nm] | Max Ex [nm] | Extinction coefficient [M⁻¹ cm⁻¹] | Quantum yield [%] |
| --- | --- | --- | --- | --- | --- |
| CC/N=c1/cc2oc3cc(NCC)ccc3nc-2cc1C [LGW01-18, (Z)—N-(7-(ethylamino)-2-methyl-3H-phenoxazin-3-ylidene)ethanaminium] | 617 | 636 | 620 | 60731 | 32.91 |
| CC/N=c1\ccc2nc3ccc(NCC)c(C)c3oc-2c1C [LGW02-57, (E)-N-(7-(ethylamino)-4,6-dimethyl-3H-phenoxazin-3-ylidene)ethanaminium] | 635 | 653 | 635 | 56713 | 11.15 |
| CCNc1ccc2nc3ccc(=[N+](CC)CC)cc-3oc2c1C [LGW02-60, N-ethyl-N-(7-(ethylamino)-6-methyl-3H-phenoxazin-3-ylidene)ethanaminium] | 645 | 661 | 650 | 65369 | 8.98 |
| CCNc1cc(C)c2nc3ccc(=[N+](CC)CC)cc-3oc2c1 [LGW02-61, N-ethyl-N-(7-(ethylamino)-9-methyl-3H-phenoxazin-3-ylidene)ethanaminium] | 630 | 658 | 635 | 68548 | 6.12 |
| CC/N=c1/cc2oc3cc4c(cc3nc-2cc1C)CCCN4CC [LGW02-91, (Z)—N-(1-ethyl-8-methyl-1,2,3,4-tetrahydro-9H-pyrido[3,2-b]phenoxazin-9-ylidene)ethanaminium] | 640 | 657 | 645 | 59971 | 23.58 |
| CC/N=c1/cc2oc3cc(N4CCCC4)ccc3nc-2cc1C [LGW03-06, (Z)—N-(2-methyl-7-(pyrrolidin-1-yl)-3H-phenoxazin-3-ylidene)ethanaminium] | 640 | 661 | 640 | 35942 | 11.94 |
| CC/N=c1/cc2oc3cc4c(cc3nc-2cc1C)CCCN4 [LGW03-12, (Z)—N-(8-methyl-1,2,3,4-tetrahydro-9H-pyrido[3,2-b]phenoxazin-9-ylidene)ethanaminium] | 624 | 638 | 630 | 40041 | 27.22 |
| CC[N+](CC)=c1ccc2nc3cc4c(cc3oc-2c1)NCCC4 [LGW03-13, N-ethyl-N-(1,2,3,4-tetrahydro-9H-pyrido[3,2-b]phenoxazin-9-ylidene)ethanaminium] | 641 | 659 | 645 | 64045 | 6.49 |
| CC[N+](CC)=c1ccc2nc3ccc(N4CCCCC4)cc3oc-2c1 [LGW03-18, N-ethyl-N-(7-(piperidin-1-yl)-3H-phenoxazin-3-ylidene)ethanaminium] | 661 | 680 | 665 | 66206 | 3.49 |
| c1cc2nc3ccc(=[N+]4CCCC4)cc-3oc2cc1N1CCCC1 [LGW03-31, 1-(7-(pyrrolidin-1-yl)-3H-phenoxazin-3-ylidene)pyrrolidin-1-ium] | 655 | 674 | 655 | 48226 | 15.78 |
| c1c2c(cc3c1N=c1cc4c(cc1O3)=NCCC4)NCCC2 [LGW03-32, 3,4,8,9,10,11-hexahydro-2H-dipyrido[3,2-b:2′,3′-i]phenoxazin-1-ium] | 631 | 644 | 630 | 45650 | 29.92 |
| CC/N=c1/cc2oc3cc4c(cc3nc-2cc1C)OCCN4 [LGW03-41, (Z)—N-(9-methyl-3,4-dihydro-[1,4]oxazino[2,3-b]phenoxazin-8(2H)-ylidene)ethanaminium] | 607 | 641 | 625 | 19729 | 25.80 |
| CCN1c2cc3oc4cc(=[N+](CC)CC)ccc-4nc3cc2C(C)=CC1(C)C [LGW03-52, N-ethyl-N-(1-ethyl-2,2,4-trimethyl-1,2-dihydro-9H-pyrido[3,2-b]phenoxazin-9-ylidene)ethanaminium] | 678 | 699 | 680 | 38039 | 6.82 |

Other lines, results leading:

| Max Abs [nm] | Max Em [nm] | Max Ex [nm] | Extinction coefficient [M⁻¹ cm⁻¹] | Quantum yield [%] | SMILES |
| --- | --- | --- | --- | --- | --- |
| 635 | 660 | 640 | 41771 | 3.31 | CCNc1ccc2nc3ccc(=[N+](CC)CC)cc-3oc2c1 [LGW01-25, N-ethyl-N-(7-(ethylamino)-3H-phenoxazin-3-ylidene)ethanaminium] |
| 612 | 631 | 610 | 21783 | 40.27 | C/N=c1/cc2oc3cc(NC)c(C)cc3nc-2cc1C [LGW01-61, (Z)—N-(2,8-dimethyl-7-(methylamino)-3H-phenoxazin-3-ylidene)methanaminium] |
| 620 | 635 | 620 | 42685 | 25.26 | CC/N=c1/cc2oc3c(C)c(NCC)ccc3nc-2cc1C [LGW02-58, (Z)—N-(7-(ethylamino)-2,6-dimethyl-3H-phenoxazin-3-ylidene)ethanaminium] |
| 611 | 636 | 615 | 41229 | 31.74 | CC/N=c1/cc2oc3cc(NCC)cc(C)c3nc-2cc1C [LGW02-59, (Z)—N-(7-(ethylamino)-2,9-dimethyl-3H-phenoxazin-3-ylidene)ethanaminium] |
| 661 | 680 | 665 | 39472 | 13.18 | CC[N+](CC)=c1ccc2nc3cc4c5c(c3oc-2c1)CCCN5CCC4 [LGW02-86, N-ethyl-N-(2,3,6,7-tetrahydro-1H,5H,12H-quinolizino[1,9-bc]phenoxazin-12-ylidene)ethanaminium] |
| 678 | 690 | 680 | 59937 | 15.03 | c1c2c3c(c4c1N=c1cc5c6c(c1O4)CCC[N+]=6CCC5)CCCN3CCC2 [LGW02-87, 2,3,6,7,12,13,16,17-octahydro-1H,5H,11H,15H-diquinolizino[1,9-bc:1′,9′-hi]phenoxazin-4-ium] |
| 656 | 673 | 660 | 43659 | 9.27 | CCN1CCCc2cc3nc4ccc(=[N+](CC)CC)cc-4oc3cc21 [LGW02-92, N-ethyl-N-(1-ethyl-1,2,3,4-tetrahydro-9H-pyrido[3,2-b]phenoxazin-9-ylidene)ethanaminium] |
| 640 | 675 | 665 | 59971 | 24.67 | CCN1CCCc2cc3c(cc21)Oc1cc2c(cc1=N3)CCC[N+]=2CC [LGW02-99, 1,11-diethyl-3,4,8,9,10,11-hexahydro-2H-dipyrido[3,2-b:2′,3′-i]phenoxazin-1-ium] |
| 642 | 661 | 640 | 36049 | 2.25 | CC/N=c1/cc2oc3cc(N4CCCCC4)ccc3nc-2cc1C [LGW03-21, (Z)—N-(2-methyl-7-(piperidin-1-yl)-3H-phenoxazin-3-ylidene)ethanaminium] |
